Test results published in publication PMC8717895 (Neuro-oncology Advances, 2021).
Entries after “also recorded” stand apart in the source; their conditions may differ. Like-named read-outs stand apart in the source and are kept apart here. Marks after values point to notes of the source that are not given here.

Format: in vivo, human
[1] = stratum A, Level 1 (100 mg/m^2), Grade 1/2
[2] = stratum A, Level 1 (100 mg/m^2), Grade 3/4
[3] = stratum A, Level 2 (130 mg/m^2), Grade 1/2
[4] = stratum A, Level 2 (130 mg/m^2), Grade 3/4
[5] = stratum A, Level 3 (170 mg/m^2), Grade 1/2
[6] = stratum A, Level 3 (170 mg/m^2), Grade 3/4
[7] = stratum A, Level 4 (220 mg/m^2), Grade 1/2
[8] = stratum A, Level 4 (220 mg/m^2), Grade 3/4

CC1(COc2ccc3c(c2)ncn3-c2ccc3cccc(N4CCC(N)CC4)c3n2)COC1 [crenolanib]
Recommended pediatric phase II dosage (once daily with food, with or without RT): 170 mg/m^2
ALT increased [1]: 10 (83%)
AST increased [1]: 6 (50%)
Abdominal pain [1]: 2 (17%)
Alkaline phosphatase increased [1]: 1 (8%)
Anemia [1]: 3 (25%)
Anorexia [1]: 1 (8%)
Diarrhea [1]: 2 (17%)
Dyspepsia [1]: 2 (17%)
GGT increased [1]: 5 (42%)
Headache [1]: 0
Hematuria [1]: 3 (25%)
Hypermagnesemia [1]: 3 (25%)
Hypernatremia [1]: 1 (8%)
Hypoalbuminemia [1]: 7 (58%)
Hypocalcemia [1]: 1 (8%)
Hypokalemia [1]: 5 (42%)
Hypophosphatemia [1]: 7 (58%)
Lipase increased [1]: 5 (42%)
Lymphocyte count decreased [1]: 2 (17%)
Nausea [1]: 8 (67%)
Neutrophil count decreased [1]: 0
Platelet count decreased [1]: 4 (33%)
Proteinuria [1]: 4 (33%)
Serum amylase increased [1]: 4 (33%)
Stomach pain [1]: 1 (8%)
Vomiting [1]: 8 (67%)
White blood cell decreased [1]: 4 (33%)
ALT increased [2]: 1 (8%)
AST increased [2]: 0
Abdominal pain [2]: 0
Alkaline phosphatase increased [2]: 0
Anemia [2]: 1 (8%)
Anorexia [2]: 0
Diarrhea [2]: 0
Dyspepsia [2]: 0
GGT increased [2]: 3 (25%)
Headache [2]: 1 (8%)
Hematuria [2]: 0
Hypermagnesemia [2]: 0
Hypernatremia [2]: 0
Hypoalbuminemia [2]: 0
Hypocalcemia [2]: 0
Hypokalemia [2]: 1 (8%)
Hypophosphatemia [2]: 0
Lipase increased [2]: 2 (17%)
Lymphocyte count decreased [2]: 8 (67%)
Nausea [2]: 0
Neutrophil count decreased [2]: 5 (42%)^a
Platelet count decreased [2]: 1 (8%)
Proteinuria [2]: 1 (8%)
Serum amylase increased [2]: 2 (17%)
Stomach pain [2]: 0
Vomiting [2]: 1 (8%)
White blood cell decreased [2]: 5 (42%)
ALT increased [3]: 2 (33%)
AST increased [3]: 4 (67%)
Abdominal pain [3]: 3 (50%)
Alkaline phosphatase increased [3]: 3 (50%)
Anemia [3]: 3 (50%)
Anorexia [3]: 1 (17%)
Diarrhea [3]: 3 (50%)
Dyspepsia [3]: 0
GGT increased [3]: 5 (83%)
Headache [3]: 1 (17%)
Hematuria [3]: 2 (33%)
Hypermagnesemia [3]: 1 (17%)
Hypernatremia [3]: 1 (17%)
Hypoalbuminemia [3]: 2 (33%)
Hypocalcemia [3]: 2 (33%)
Hypokalemia [3]: 1 (17%)
Hypophosphatemia [3]: 3 (50%)
Lipase increased [3]: 2 (33%)
Lymphocyte count decreased [3]: 0
Nausea [3]: 5 (83%)
Neutrophil count decreased [3]: 1 (17%)
Platelet count decreased [3]: 3 (50%)
Proteinuria [3]: 5 (83%)
Serum amylase increased [3]: 0
Stomach pain [3]: 2 (33%)
Vomiting [3]: 6 (100%)
White blood cell decreased [3]: 3 (50%)
ALT increased [4]: 2 (33%)
AST increased [4]: 0
Abdominal pain [4]: 0
Alkaline phosphatase increased [4]: 0
Anemia [4]: 0
Anorexia [4]: 0
Diarrhea [4]: 0
Dyspepsia [4]: 0
GGT increased [4]: 0
Headache [4]: 1 (17%)
Hematuria [4]: 0
Hypermagnesemia [4]: 0
Hypernatremia [4]: 0
Hypoalbuminemia [4]: 0
Hypocalcemia [4]: 0
Hypokalemia [4]: 1 (17%)
Hypophosphatemia [4]: 0
Lipase increased [4]: 0
Lymphocyte count decreased [4]: 6 (100%)
Nausea [4]: 0
Neutrophil count decreased [4]: 2 (33%)
Platelet count decreased [4]: 0
Proteinuria [4]: 1 (17%)
Serum amylase increased [4]: 1 (17%)
Stomach pain [4]: 0
Vomiting [4]: 0
White blood cell decreased [4]: 2 (33%)
ALT increased [5]: 4 (67%)
AST increased [5]: 5 (83%)
Abdominal pain [5]: 2 (33%)
Alkaline phosphatase increased [5]: 2 (33%)
Anemia [5]: 3 (50%)
Anorexia [5]: 3 (50%)
Diarrhea [5]: 3 (50%)
Dyspepsia [5]: 1 (17%)
GGT increased [5]: 4 (67%)
Headache [5]: 0
Hematuria [5]: 3 (50%)
Hypermagnesemia [5]: 3 (50%)
Hypernatremia [5]: 2 (33%)
Hypoalbuminemia [5]: 4 (67%)
Hypocalcemia [5]: 1 (17%)
Hypokalemia [5]: 2 (33%)
Hypophosphatemia [5]: 3 (50%)
Lipase increased [5]: 1 (17%)
Lymphocyte count decreased [5]: 2 (33%)
Nausea [5]: 5 (83%)
Neutrophil count decreased [5]: 1 (17%)
Platelet count decreased [5]: 2 (33%)
Proteinuria [5]: 5 (83%)
Serum amylase increased [5]: 3 (50%)
Stomach pain [5]: 0
Vomiting [5]: 6 (100%)
White blood cell decreased [5]: 4 (67%)
ALT increased [6]: 2 (33%)
AST increased [6]: 1 (17%)
Abdominal pain [6]: 0
Alkaline phosphatase increased [6]: 0
Anemia [6]: 0
Anorexia [6]: 0
Diarrhea [6]: 0
Dyspepsia [6]: 0
GGT increased [6]: 2 (33%)^a
Headache [6]: 0
Hematuria [6]: 0
Hypermagnesemia [6]: 0
Hypernatremia [6]: 0
Hypoalbuminemia [6]: 0
Hypocalcemia [6]: 0
Hypokalemia [6]: 2 (33%)
Hypophosphatemia [6]: 0
Lipase increased [6]: 0
Lymphocyte count decreased [6]: 4 (67%)
Nausea [6]: 0
Neutrophil count decreased [6]: 0
Platelet count decreased [6]: 0
Proteinuria [6]: 0
Serum amylase increased [6]: 0
Stomach pain [6]: 0
Vomiting [6]: 0
White blood cell decreased [6]: 1 (17%)
ALT increased [7]: 6 (75%)
AST increased [7]: 7 (88%)
Abdominal pain [7]: 1 (13%)
Alkaline phosphatase increased [7]: 1 (13%)
Anemia [7]: 6 (75%)
Anorexia [7]: 2 (25%)
Diarrhea [7]: 4 (50%)
Dyspepsia [7]: 0
GGT increased [7]: 6 (75%)
Headache [7]: 1 (13%)
Hematuria [7]: 2 (25%)
Hypermagnesemia [7]: 5 (63%)
Hypernatremia [7]: 0
Hypoalbuminemia [7]: 6 (75%)
Hypocalcemia [7]: 3 (38%)
Hypokalemia [7]: 3 (38%)
Hypophosphatemia [7]: 6 (75%)
Lipase increased [7]: 2 (25%)
Lymphocyte count decreased [7]: 0
Nausea [7]: 7 (88%)
Neutrophil count decreased [7]: 1 (13%)
Platelet count decreased [7]: 3 (38%)
Proteinuria [7]: 5 (63%)
Serum amylase increased [7]: 3 (38%)
Stomach pain [7]: 0
Vomiting [7]: 8 (100%)
White blood cell decreased [7]: 7 (88%)
ALT increased [8]: 2 (25%)^a
AST increased [8]: 0
Abdominal pain [8]: 0
Alkaline phosphatase increased [8]: 0
Anemia [8]: 0
Anorexia [8]: 0
Diarrhea [8]: 0
Dyspepsia [8]: 0
GGT increased [8]: 1 (13%)^a
Headache [8]: 0
Hematuria [8]: 0
Hypermagnesemia [8]: 0
Hypernatremia [8]: 0
Hypoalbuminemia [8]: 0
Hypocalcemia [8]: 1 (13%)
Hypokalemia [8]: 2 (25%)
Hypophosphatemia [8]: 1 (13%)
Lipase increased [8]: 0
Lymphocyte count decreased [8]: 8 (100%)
Nausea [8]: 0
Neutrophil count decreased [8]: 0
Platelet count decreased [8]: 0
Proteinuria [8]: 0
Serum amylase increased [8]: 0
Stomach pain [8]: 0
Vomiting [8]: 0
White blood cell decreased [8]: 0
DLTs attributable to crenolanib during the DLT observation period (stratum A, dose level 1): grade 4 neutropenia
DLTs attributable to crenolanib during the DLT observation period (stratum A, dose level 3): grade 3 gamma-glutamyl transferase (GGT) elevation
DLTs attributable to crenolanib during the DLT observation period (stratum A, dose level 4): grade 3 GGT elevation; also recorded: grade 3 ALT elevation
patients having grade 3/4 elevations of ALT, AST, GGT, or alkaline phosphatase (stratum A, during and after the DLT period): 28%
Maximum tolerated dose (MTD) (stratum A, once daily during and after RT, pediatric): 170 mg/m^2
Most common grade 3/4 toxicity (stratum A, resolved with drug interruption): leukopenia
